Source: patent US9895381B2, “Vitamin D receptor agonists to treat diseases involving CXCL12 activity” (Salk Institute for Biological Studies, priority 2013, dated 2018)

Key:
[1] = cited from earlier work
[2] = test system: pancreatic cancer patient; assay: Patient treated with neoadjuvant paricalcitol plus gemcitabine/abraxane; assay type: in vivo, human
Procedure: Thus, in some examples, paricalcitol is administered at 5 or 10 μg IV three times weekly for two-three weeks before surgery. […] Paricalcitol can be given for 28 days approximately prior to planned surgery, and can be continued up to the day before surgery, since there is no relevant toxicity of this micronutrient. Last dose can be 24 h before surgery (if surgery is delayed, and additional days of therapy may be given to reach the day before surgery).

PDA patients = conditions: standard of care; cited from earlier work
[3] = 28 days paricalcitol with one cycle of gemcitabine/abraxane

Row | calcium levels [2, 3] | Compound | phosphorus and calcium levels ([1]; first 30 days of treatment) | mean plasma clearance ([1]; over 600 patients) [L/h] | adverse clinical effects before surgery [2, 3] | histological analysis of resected tumor ([2]; after surgery) | serum CA 19-9 level after treatment ([2]; reduced from 120 U/mL, normal range 0-37 U/mL) [U/mL] | benefit to PDA patients (PDA patients) [month]
1 | no elevation calcium levels | C[C@H](/C=C/[C@H](C)C(C)(C)O)[C@H]1CC[C@H]2/C(=C/C=C3C[C@@H](O)C[C@H](O)C3)CCC[C@]12C [Paricalcitol, 19-nor-1,25-(OH)2-vitamin D2] | stable phosphorus and calcium levels | 1.75 | No adverse clinical effects | granulomas with few cancer cells | 40 | 
2 |  | Cl.Nc1ccn([C@@H]2O[C@H](CO)[C@@H](O)C2(F)F)c(=O)n1 [gemcitabine, 2′-Deoxy-2′,2′-difluorocytidine monohydrochloride] |  |  |  |  |  | 1.5
